Laboratory results reported in patent US7452887B2, “Quinoline- and isoquinoline-based compounds exhibiting ATP-utilizing enzyme inhibitory activity, and compositions, and uses thereof” (Amphora Discovery Corporation, priority 2004, dated 2008).

Biological target: MAPKAPK2 (Homo sapiens, UniProt P49137)
Assay: HTS ATP-utilizing enzyme assay, off-chip mobility-shift (Caliper HTS 250)
Format: biochemical
Conditions: test compound 10 μM, kinase listed = active (greater than six-sigma from the mean activity of inactive compounds)
Source text: The following procedures describe the reagent and plate preparation for a HTS of an ATP-utilizing enzyme, such as a protein kinase, run in an off-chip mobility-shift assay format. The following provides an HTS protocol for running a protein kinase HTS screen on a Caliper HTS 250 microfluidics system. The following parameters are dependent on the protein kinase used and can be determined by one skilled in the art as part of a typical assay development process. For example, the peptide substrate used can be identified from the current literature, by screening a peptide library of potential protein kinase substrates, or by other applicable means accepted in the field.
The following table provides typical screen assay parameters appropriate for a Caliper HTS 250 microfluidics system.
The reagents and buffers listed in the following table are generally applicable for developing and running an HTS screen on a human protein kinase using the Caliper HTS 250 system.
The following reagents were prepared using the previously described buffers.
A 2× Master Buffer solution was prepared by combining 200 mL of 1 M HEPES, pH 7.5, 2 mL of 10% Triton X-100, 20 mL of 10% BSA, and 778 mL of H2O.
A TCB Buffer solution was prepared by combining 125 mL of 2× Master Buffer, 10 mL of 0.5 M EDTA, 6.25 mL of 4% coating reagent, 1.01 mL of 100% DMSO, and 107.74 mL H2O.
Assays to determine the kinase inhibitory activity of compounds of the present disclosure were performed using a Caliper HTS 250 microfluidics device, Greiner U-bottom assay plates, a Multidrop for transfer of reagents, and Biomek FX (AMNCBM03) software. Initially, 2.4 μL of a 1 mM solution of a test compound in 100% DMSO was added to a well of the Greiner U-bottom plate. A single Greiner U-bottom plate having 24×16 wells could include multiple test compounds. […] Using the Biomek FX, 10 μL of 0.5 M EDTA was added by the span-8 to wells, indicated as 100% Control and 2.4 μL of 100% DMSO was added by the span-8 to wells, indicated as 0% Control. […] The total reaction volume in each well was 25 μL, and the concentration of the test compound was 10 μM. The assay plate was incubated for 2.5 hrs at 20° C. to 22° C. […] The inhibition of the ATP-utilizing enzyme, such as a particular protein kinase, was determined by measuring the ratio of the peptide substrate to phosphorylated product for each well of the assay plate using the Caliper HTS 250 system.
The use of six-sigma statistical limits represents a conservative method for declaring potential hits among targets. The six-sigma activity, as well as the mean population activity, can be different for each target enzyme.

Sequence of MAPKAPK2 (P49137 whole entry): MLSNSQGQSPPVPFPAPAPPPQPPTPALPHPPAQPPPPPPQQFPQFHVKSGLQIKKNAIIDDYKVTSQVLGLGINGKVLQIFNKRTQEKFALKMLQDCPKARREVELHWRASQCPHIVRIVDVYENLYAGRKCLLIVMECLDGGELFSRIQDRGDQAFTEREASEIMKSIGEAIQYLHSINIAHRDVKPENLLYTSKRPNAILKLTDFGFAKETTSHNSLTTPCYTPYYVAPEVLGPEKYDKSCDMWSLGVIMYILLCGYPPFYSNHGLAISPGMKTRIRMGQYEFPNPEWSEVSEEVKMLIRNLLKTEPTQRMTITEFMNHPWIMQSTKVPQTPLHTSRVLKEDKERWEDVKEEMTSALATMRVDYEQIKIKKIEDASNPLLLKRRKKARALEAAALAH

Activity | Structure (SMILES)
MAPKAPK2 | Cc1ccc(-c2ccc3nccc(Nc4ccc(N5CCC(N(C)C)C5)cc4)c3c2)cc1F (stereo not shown) [N-(4-(3-(dimethylamino)pyrrolidin-1-yl)phenyl)-6-(3-fluoro-4-methylphenyl)quinolin-4-amine]
MAPKAPK2 | CCCCN1CCN(c2ccc(Nc3ccnc4ccc(-c5ccccc5)cc34)cc2)CC1 [N-(4-(4-butylpiperazin-1-yl)phenyl)-6-phenylquinolin-4-amine]
MAPKAPK2 | Cc1ccc(-c2ccc3nccc(Nc4ccc(N(C)C5CCN(C)C5)cc4)c3c2)nc1 (stereo not shown) [N1-methyl-N4-(6-(5-methylpyridin-2-yl)quinolin-4-yl)-N1-(1-methylpyrrolidin-3-yl)benzene-1,4-diamine]
MAPKAPK2 | COCCN1CCN(c2ccc(Nc3ccnc4ccc(-c5ccccc5)cc34)cc2)CC1 [N-(4-(4-(2-methoxyethyl)piperazin-1-yl)phenyl)-6-phenylquinolin-4-amine]
MAPKAPK2 | c1ccc(-c2ccc3nccc(Nc4ccc(N5CCN(C6CCCCC6)CC5)cc4)c3c2)cc1 [N-(4-(4-cyclohexylpiperazin-1-yl)phenyl)-6-phenylquinolin-4-amine]
MAPKAPK2 | CN(C)C1CCN(c2ccc(Nc3ccnc4ccc(-c5ccc6cc[nH]c6c5)cc34)cc2)C1 (stereo not shown) [N-(4-(3-(dimethylamino)pyrrolidin-1-yl)phenyl)-6-(1H-indol-6-yl)quinolin-4-amine]
MAPKAPK2 | CCC(C)N1CCN(c2ccc(Nc3ccnc4ccc(-c5ccc(OC)cc5)cc34)cc2)CC1 (stereo not shown) [N-(4-(4-sec-butylpiperazin-1-yl)phenyl)-6-(4-methoxyphenyl)quinolin-4-amine]
MAPKAPK2 | C=Cc1ccc(-c2ccc3nccc(Nc4ccc(N5CCC(N(C)C)C5)cc4)c3c2)cc1 (stereo not shown) [N-(4-(3-(dimethylamino)pyrrolidin-1-yl)phenyl)-6-(4-vinylphenyl)quinolin-4-amine]
MAPKAPK2 | CN(C)CCN1CCN(c2ccc(Nc3ccnc4ccc(-c5ccccc5)cc34)cc2)CC1 [N-(4-(4-(2-(dimethylamino)ethyl)piperazin-1-yl)phenyl)-6-phenylquinolin-4-amine]
MAPKAPK2 | CN(C)C1CCN(c2ccc(Nc3ccnc4ccc(-c5nccs5)cc34)cc2)C1 (stereo not shown) [N-(4-(3-(dimethylamino)pyrrolidin-1-yl)phenyl)-6-(thiazol-2-yl)quinolin-4-amine]
MAPKAPK2 | COc1cccc(-c2ccc3nccc(Nc4ccc(N5CCC(N(C)C)C5)cc4)c3c2)c1 (stereo not shown) [N-(4-(3-(dimethylamino)pyrrolidin-1-yl)phenyl)-6-(3-methoxyphenyl)quinolin-4-amine]
MAPKAPK2 | Cc1cc(-c2ccc3nccc(Nc4ccc(N5CCC(N(C)C)C5)cc4)c3c2)ccc1F (stereo not shown) [N-(4-(3-(dimethylamino)pyrrolidin-1-yl)phenyl)-6-(4-fluoro-3-methylphenyl)quinolin-4-amine]

The remaining lines, values behind:

Structure (SMILES) | Activity
CCCCN1CCN(c2ccc(Nc3ccnc4ccc(-c5ccc(C#N)cc5)cc34)cc2)CC1 [4-(4-(4-(4-butylpiperazin-1-yl)phenylamino)quinolin-6-yl)benzonitrile] | MAPKAPK2
CN(C)C1CCN(c2ccc(Nc3ccnc4ccc(-c5ccc(Cl)c(F)c5)cc34)cc2)C1 (stereo not shown) [6-(4-chloro-3-fluorophenyl)-N-(4-(3-(dimethylamino)pyrrolidin-1-yl)phenyl)quinolin-4-amine] | MAPKAPK2
CN(C)C1CCN(c2ccc(Nc3ccnc4ccc(-c5ccc6[nH]c(=O)sc6c5)cc34)cc2)C1 (stereo not shown) [6-(4-(4-(3-(dimethylamino)pyrrolidin-1-yl)phenylamino)quinolin-6-yl)benzo[d]thiazol-2(3H)-one] | MAPKAPK2
Cc1cc(-c2ccc3nccc(Nc4ccc(N5CCC(N(C)C)C5)cc4)c3c2)cnc1Cl (stereo not shown) [6-(6-chloro-5-methylpyridin-3-yl)-N-(4-(3-(dimethylamino)pyrrolidin-1-yl)phenyl)quinolin-4-amine] | MAPKAPK2
CN1CCC(c2ccc(Nc3ccnc4ccc(-c5ccc(C#N)cc5)cc34)cc2)CC1 [4-(4-(4-(1-methylpiperidin-4-yl)phenylamino)quinolin-6-yl)benzonitrile] | MAPKAPK2
CN1CCC(N(C)c2ccc(Nc3ccnc4ccc(-c5cnc6ccccc6c5)cc34)cc2)C1 (stereo not shown) [N1-(3,6′-biquinolin-4′-yl)-N4-methyl-N4-(1-methylpyrrolidin-3-yl)benzene-1,4-diamine] | MAPKAPK2
CCCN(c1ccc(N2CCN(C)CC2)cc1)c1ccnc2ccc(-c3ccc(OC)cc3)cc12 [6-(4-methoxyphenyl)-N-(4-(4-methylpiperazin-1-yl)phenyl)-N-propylquinolin-4-amine] | MAPKAPK2
CN(C)CC1CCCN1c1ccc(Nc2ccnc3ccc(-c4ccc(C#N)cc4)cc23)cc1 (stereo not shown) [4-(4-(4-(2-((dimethylamino)methyl)pyrrolidin-1-yl)phenylamino)quinolin-6-yl)benzonitrile] | MAPKAPK2
Cc1ccc(-c2ccc3nccc(Nc4ccc(N5CCC(N(C)C)C5)cc4)c3c2)cc1Cl (stereo not shown) [6-(3-chloro-4-methylphenyl)-N-(4-(3-(dimethylamino)pyrrolidin-1-yl)phenyl)quinolin-4-amine] | MAPKAPK2
CN(C)[C@H]1CCN(c2ccc(Nc3ccnc4ccc(-c5ccc(Cl)cc5)cc34)cc2)C1 [(S)-6-(4-chlorophenyl)-N-(4-(3-(dimethylamino)pyrrolidin-1-yl)phenyl)quinolin-4-amine] | MAPKAPK2
CN(C)C1CCN(c2ccc(Nc3ccnc4ccc(-c5csc6ccccc56)cc34)cc2)C1 (stereo not shown) [6-(benzo[b]thiophen-3-yl)-N-(4-(3-(dimethylamino)pyrrolidin-1-yl)phenyl)quinolin-4-amine] | MAPKAPK2
CN(Cc1ccccc1)C1CCN(c2ccc(Nc3ccnc4ccc(-c5ccc(C#N)cc5)cc34)cc2)C1 (stereo not shown) [4-(4-(4-(3-(benzyl(methyl)amino)pyrrolidin-1-yl)phenylamino)quinolin-6-yl)benzonitrile] | MAPKAPK2
CN1CCN(c2ccc(Oc3ccnc4ccc(-c5ccc(C#N)cc5)cc34)cc2)CC1 [4-(4-(4-(4-methylpiperazin-1-yl)phenoxy)quinolin-6-yl)benzonitrile] | MAPKAPK2
CN(C)C1CCN(c2ccc(Nc3ccnc4ccc(-c5ccc(Cl)c(Cl)c5)cc34)cc2)C1 (stereo not shown) [6-(3,4-dichlorophenyl)-N-(4-(3-(dimethylamino)pyrrolidin-1-yl)phenyl)quinolin-4-amine] | MAPKAPK2
CN(C)C1CCN(c2ccc(Nc3ccnc4ccc(-c5ccc6c(c5)OCO6)cc34)cc2)C1 (stereo not shown) [6-(benzo[d][1,3]dioxol-5-yl)-N-(4-(3-(dimethylamino)pyrrolidin-1-yl)phenyl)quinolin-4-amine] | MAPKAPK2
CN(C)[C@@H]1CCN(c2ccc(Nc3ccnc4ccc(-c5ccc6ccccc6c5)cc34)cc2)C1 [(R)-N-(4-(3-(dimethylamino)pyrrolidin-1-yl)phenyl)-6-(naphthalen-2-yl)quinolin-4-amine] | MAPKAPK2
C=CCN1CCN(c2ccc(Nc3ccnc4ccc(-c5ccc(C#N)cc5)cc34)cc2)CC1 [4-(4-(4-(4-allylpiperazin-1-yl)phenylamino)quinolin-6-yl)benzonitrile] | MAPKAPK2
COc1ccc(-c2ccc3nccc(Nc4ccc(N5CCN(CCC#N)CC5)cc4)c3c2)cc1 [3-(4-(4-(6-(4-methoxyphenyl)quinolin-4-ylamino)phenyl)piperazin-1-yl)propanenitrile] | MAPKAPK2
COCCN1CCN(c2ccc(Nc3ccnc4ccc(-c5ccc(C#N)cc5)cc34)cc2)CC1 [4-(4-(4-(4-(2-methoxyethyl)piperazin-1-yl)phenylamino)quinolin-6-yl)benzonitrile] | MAPKAPK2
N#Cc1ccc(-c2ccc3nccc(Nc4ccc(N5CCN(CCO)CC5)cc4)c3c2)cc1 [4-(4-(4-(4-(2-hydroxyethyl)piperazin-1-yl)phenylamino)quinolin-6-yl)benzonitrile] | MAPKAPK2
CN(C)Cc1ccccc1-c1ccc2nccc(Nc3ccc(N4CCN(C)CC4)cc3)c2c1 [6-(2-((dimethylamino)methyl)phenyl)-N-(4-(4-methylpiperazin-1-yl)phenyl)quinolin-4-amine] | MAPKAPK2
CN1CCC(N(C)c2ccc(Nc3ccnc4ccc(-c5ccc(C#N)cc5)cc34)cc2)C1 (stereo not shown) [4-(4-(4-(methyl(1-methylpyrrolidin-3-yl)amino)phenylamino)quinolin-6-yl)benzonitrile] | MAPKAPK2
